# Reference: PMC6918900, “Concentration-Dependent Activity of Hydromethylthionine on Cognitive Decline and Brain Atrophy in Mild to Moderate Alzheimer’s Disease” (Journal of Alzheimer's Disease, 2019)
# Like-named read-outs stand apart in the source and are kept apart here.
# Experiment: Population PK: parent MT steady state plasma Cmax,ss in Phase III patients
# Format: in vivo, human
# Conditions: for % high Cmax (Cmax,ss > 0.373 ng/ml): LMTM 8 mg/day; for Cmax: human, plasma, oral, parent MT
# Text: Pharmacokinetic analyses were undertaken using plasma concentration data from patients who participated in either of two completed Phase III trials which have been described previously [[35, 36]]. In brief, the first (TRx-237-015) was a 15-month study which recruited 890 patients from 115 sites across 16 countries in EU, North America, Asia, and Russia. Patients had to be <90 years of age and have a diagnosis of mild to moderate probable AD according to National Institute of Aging (NIA) and Alzheimer’s Association (AA) criteria and a Mini-Mental State Examination (MMSE) score of 14–26 inclusive and with a Clinical Dementia Rating (CDR) total score of 1 or 2. The second study (TRx-237-005) was an 18-month trial which recruited 800 patients from 108 sites in Canada, United States, Australia, and Europe. Patients had to meet the same age and diagnosis criteria, except that they were required to have a MMSE score of 20–26 inclusive and a CDR total score of 0.5 or 1.0. Concomitant use of AChEIs or memantine (or both) was permitted in both studies provided this was at a stable dose for at least 18 weeks before randomization. Concomitant use of serotonergic antidepressant, antipsychotic (except clozapine or olanzapine), and sedative medications was also permitted at stable doses where clinically feasible. Patients were randomly assigned to receive LMTM at doses of 250, 150, or 8 mg/day in Study 015 and doses of 200 or 8 mg/day in Study TRx-237-005. Randomization in both studies was stratified according to geographical region, use of AD-labelled co-medications, and severity of AD. The co-primary outcomes in both studies were the Alzheimer’s Disease Assessment Scale–cognitive subscale, 11-item version (ADAS-cog11) and the Alzheimer’s Disease Co-operative Study–Activities of Daily Living, 23-item version (ADCS-ADL23) scale measured at baseline and every 3 months. MRI scans were undertaken at screening or baseline and at 3-month intervals. MRI acquisition protocol and parameters were standardized across sites and all data were centrally collected, quality-controlled, and analyzed blind by an imaging core lab (Bioclinica). Volumetric data were used to measure changes in whole brain volume (WBV, which provides a measure of the volume of grey and white matter), lateral ventricular volume (LVV), and other regional volumes including hippocampus, although only the global measures are reported in the present study. Baseline volumes were assessed using FreeSurfer 5.3, and volume change was assessed using Boundary Shift Integral and Tensor Based Morphometry for regional structures. Full details and study protocols for these two trials are available [[35, 36]].
# Blood samples for assessment of parent MT, N-desmethyl MT, and total MT (sum of parent MT and a labile LMT conjugate) were collected from each patient on the first treatment visit (two samples: pre-dose and approximately 3.5 h after the dose) and at each subsequent on-treatment visit. The protocol specified that PK plasma sampling was to be conducted only at sites with adequate facilities (i.e., a refrigerated centrifuge and adequate capability to reliably freeze samples). Blinded analyses were conducted at the University of Aberdeen GLP Test Facility. MT levels in plasma were measured using liquid chromatography-tandem mass spectrometry. […] The method was validated for use in the Phase III studies over the range 0.2 to 10 ng/ml. Extrapolated MT concentrations were available below the lower limit of quantitation (but above the lower limit of detection) in approximately 35% of the Day 1 patients randomized to the 8 mg/day dose. The method was validated for long-term sample storage of 162 days at –20°C. […] Plasma samples from a total of 1,296 patients from the two Phase III studies in AD were available for analysis and, of these, 1,162 also had baseline and post-baseline efficacy outcome data available for analysis. […]
smiles,measurement,setting,value
"CN(C)c1ccc2c(c1)Sc1cc(N(C)C)ccc1N2 [LMTM, leuco-methylthioninium bis(hydromethanesulphonate)]",patients with subthreshold plasma levels (below 0.2 ng/ml) after first dose on Day 1,8 mg/day,35%
same,steady state plasma levels,8 mg/day dose,0.3 to 0.8 ng/mL
same,"probability of achieving the Cmax,ss threshold of 0.373 ng/ml","8 mg/day, creatinine clearance 20 ml/min/1.73 m^2",~100%
same,"probability of achieving the Cmax,ss threshold of 0.373 ng/ml","8 mg/day, creatinine clearance 106 ml/min/1.73 m^2",essentially zero
same,"% high Cmax (Cmax,ss > 0.373 ng/ml)","patients not using anti-inflammatory and antirheumatic products, non-steroids",67.3%
same,"% high Cmax (Cmax,ss > 0.373 ng/ml)",patients not using antihypertensive/antiarrhythmic drugs,60.6%
same,"% high Cmax (Cmax,ss > 0.373 ng/ml)",patients not using antithrombotic agents,62.6%
same,"% high Cmax (Cmax,ss > 0.373 ng/ml)","patients not using blood glucose lowering drugs, excluding insulins",65.6%
same,"% high Cmax (Cmax,ss > 0.373 ng/ml)",patients not using drugs for peptic ulcer and gastro-esophageal reflux disease,65.3%
same,"% high Cmax (Cmax,ss > 0.373 ng/ml)",patients not using lipid modifying agents,66.0%
same,"% high Cmax (Cmax,ss > 0.373 ng/ml)",patients not using thyroid preparations,64.3%
same,"% high Cmax (Cmax,ss > 0.373 ng/ml)","patients using anti-inflammatory and antirheumatic products, non-steroids",59.5%
same,"% high Cmax (Cmax,ss > 0.373 ng/ml)",patients using antithrombotic agents,70.3%
same,"% high Cmax (Cmax,ss > 0.373 ng/ml)","patients using blood glucose lowering drugs, excluding insulins",66.2%
same,"% high Cmax (Cmax,ss > 0.373 ng/ml)",patients using drugs for peptic ulcer and gastro-esophageal reflux disease,66.9%
same,"% high Cmax (Cmax,ss > 0.373 ng/ml)",patients using lipid modifying agents,65.2%
same,"% high Cmax (Cmax,ss > 0.373 ng/ml)",patients using thyroid preparations,74.1%
same,estimated mean plasma concentration,expected at 16 mg/day,0.88 ± 0.18 ng/mL
same,plasma concentrations,high doses (150–250 mg/day),4 to 21 ng/mL
same,Cmax,"8 mg/day, 8 mg/day – Group 1, read-out: Cmax,ss Mean (SD)",0.334 ng/mL
same,Cmax,"8 mg/day, 8 mg/day – Group 1, read-out: Cmax,ss Range",0.257 to 0.373 ng/mL
same,Cmax,"8 mg/day, 8 mg/day – Group 2, read-out: Cmax,ss Range",0.373 to 0.414 ng/mL
same,Cmax,"8 mg/day, 8 mg/day – Group 3, read-out: Cmax,ss Mean (SD)",0.449 ng/mL
same,Cmax,"8 mg/day, 8 mg/day – Group 3, read-out: Cmax,ss Range",0.415 to 0.478 ng/mL
same,Cmax,"8 mg/day, 8 mg/day – Group 4, read-out: Cmax,ss Mean (SD)",0.565 ng/mL
same,Cmax,"8 mg/day, 8 mg/day – Group 4, read-out: Cmax,ss Range",0.479 to 0.812 ng/mL
same,Cmax,"150 mg/day, 150 mg/day, read-out: Cmax,ss Mean (SD)",7.82 ng/mL
same,Cmax,"150 mg/day, 150 mg/day, read-out: Cmax,ss Range",5.1 to 18.6 ng/mL
same,Cmax,"200 mg/day, 200 mg/day, read-out: Cmax,ss Mean (SD)",10.1 ng/mL
same,Cmax,"200 mg/day, 200 mg/day, read-out: Cmax,ss Range",6.56 to 21.3 ng/mL
same,Cmax,"250 mg/day, 250 mg/day, read-out: Cmax,ss Mean (SD)",12.6 ng/mL
same,Cmax,"250 mg/day, 250 mg/day, read-out: Cmax,ss Range",8.83 to 21.2 ng/mL
same,Cmax,"8 mg/day – Group 2, read-out: Cmax,ss Mean (SD)",0.393 ng/mL
